Measurements reported in US20050197350A1, “Novel quinoline, tetrahydroquinazoline, and pyrimidine derivatives and methods of treatment related to the use thereof” (TAISHO PHARMACEUTICAL CO., LTD., priority 2003, published 2005).

What follows are compounds tested on MCH receptors (assay: MCH receptor activity class (method not given)). Settings: class 1-3 by percent of control at 10^-7 M or IC50.
`CN(C)c1nc(N[C@H]2CC[C@@H](NC(=O)c3ccc(F)c(Cl)c3F)CC2)nc2c1CCCC2` [compound 498] was tested, and the class was 3 (Class 3 The value of percent of control at 10^−7 M was more than 60% or the value of IC50 was more than 200 nM.).
In the case of `CN(C)c1nc(N[C@H]2CC[C@@H](NC(=O)CSc3ccccc3)CC2)nc2c1CCCC2` [compound 499], the class is reported as 3 (Class 3 The value of percent of control at 10^−7 M was more than 60% or the value of IC50 was more than 200 nM.).
For `CN(C)c1nc(N[C@H]2CC[C@@H](NC(=O)c3cccc(C(F)(F)F)c3F)CC2)nc2c1CCCC2` [compound 500], the class was 3 (Class 3 The value of percent of control at 10^−7 M was more than 60% or the value of IC50 was more than 200 nM.).
With `CN(C)c1nc(N[C@H]2CC[C@@H](NC(=O)c3cc(C(F)(F)F)ccc3F)CC2)nc2c1CCCC2` [compound 501] the class was 3 (Class 3 The value of percent of control at 10^−7 M was more than 60% or the value of IC50 was more than 200 nM.).
`COc1cccc(CC(=O)N[C@H]2CC[C@@H](Nc3nc4c(c(N(C)C)n3)CCCC4)CC2)c1` [compound 503] was tested, and the class was 2 (Class 2: The value of percent of control at 10^−7 M was from 40% to 60% or the value of IC′50 was from 50 nM to 200 nM.).
With `CN(C)c1nc(N[C@H]2CC[C@@H](NC(=O)Cc3ccc(F)cc3)CC2)nc2c1CCCC2` [compound 504] the class was 1 (Class 1: The value of percent of control at 10^−7 M was less than 40% or the value of IC50 was less than 50 nM.).
With `COc1ccc(CC(=O)N[C@H]2CC[C@@H](Nc3nc4c(c(N(C)C)n3)CCCC4)CC2)cc1` [compound 505] the class was 2 (Class 2: The value of percent of control at 10^−7 M was from 40% to 60% or the value of IC′50 was from 50 nM to 200 nM.).
In the case of `Cc1cc(C(=O)N[C@H]2CC[C@@H](Nc3nc4c(c(N(C)C)n3)CCCC4)CC2)c(C(F)(F)F)o1` [compound 506], the class is reported as 2 (Class 2: The value of percent of control at 10^−7 M was from 40% to 60% or the value of IC′50 was from 50 nM to 200 nM.).
With `Cc1cc(C(=O)N[C@H]2CC[C@@H](Nc3nc4c(c(N(C)C)n3)CCCC4)CC2)c(C)o1` [compound 507] the class was 1 (Class 1: The value of percent of control at 10^−7 M was less than 40% or the value of IC50 was less than 50 nM.).
With `CCOc1ccccc1C(=O)N[C@H]1CC[C@@H](Nc2nc3c(c(N(C)C)n2)CCCC3)CC1` [compound 508] the class was 3 (Class 3 The value of percent of control at 10^−7 M was more than 60% or the value of IC50 was more than 200 nM.).
In the case of `CN(C)c1nc(N[C@H]2CC[C@@H](NC(=O)c3ccc(F)c(Cl)c3)CC2)nc2c1CCCC2` [compound 509], the class is reported as 1 (Class 1: The value of percent of control at 10^−7 M was less than 40% or the value of IC50 was less than 50 nM.).
With `Cc1ccc(C(=O)N[C@H]2CC[C@@H](Nc3nc4c(c(N(C)C)n3)CCCC4)CC2)cc1F` [compound 510] the class was 2 (Class 2: The value of percent of control at 10^−7 M was from 40% to 60% or the value of IC′50 was from 50 nM to 200 nM.).
For `CN(C)c1nc(N[C@H]2CC[C@@H](NC(=O)CC3CCCC3)CC2)nc2c1CCCC2` [compound 511], the class was 3 (Class 3 The value of percent of control at 10^−7 M was more than 60% or the value of IC50 was more than 200 nM.).
In the case of `COc1cc(OC)cc(C(=O)N[C@H]2CC[C@@H](Nc3nc4c(c(N(C)C)n3)CCCC4)CC2)c1` [compound 512], the class is reported as 1 (Class 1: The value of percent of control at 10^−7 M was less than 40% or the value of IC50 was less than 50 nM.).
For `CN(C)c1nc(N[C@H]2CC[C@@H](NC(=O)c3ccc(C#N)cc3)CC2)nc2c1CCCC2` [compound 513], the class was 3 (Class 3 The value of percent of control at 10^−7 M was more than 60% or the value of IC50 was more than 200 nM.).
For `CN(C)c1nc(N[C@H]2CC[C@@H](NC(=O)c3cc(C(F)(F)F)cc(C(F)(F)F)c3)CC2)nc2c1CCCC2` [compound 514], the class was 1 (Class 1: The value of percent of control at 10^−7 M was less than 40% or the value of IC50 was less than 50 nM.).
With `CN(C)c1nc(N[C@H]2CC[C@@H](NC(=O)/C=C/c3ccc([N+](=O)[O-])cc3)CC2)nc2c1CCCC2` [compound 515] the class was 3 (Class 3 The value of percent of control at 10^−7 M was more than 60% or the value of IC50 was more than 200 nM.).
With `CN(C)c1nc(N[C@H]2CC[C@@H](NC(=O)Cc3ccccc3Br)CC2)nc2c1CCCC2` [compound 516] the class was 3 (Class 3 The value of percent of control at 10^−7 M was more than 60% or the value of IC50 was more than 200 nM.).
`Cc1cc(C(=O)N[C@H]2CC[C@@H](Nc3nc4c(c(N(C)C)n3)CCCC4)CC2)ccc1F` [compound 517] was tested, and the class was 1 (Class 1: The value of percent of control at 10^−7 M was less than 40% or the value of IC50 was less than 50 nM.).
For `CN(C)c1nc(N[C@H]2CC[C@@H](NC(=O)c3ccccc3SC(F)F)CC2)nc2c1CCCC2` [compound 518], the class was 3 (Class 3 The value of percent of control at 10^−7 M was more than 60% or the value of IC50 was more than 200 nM.).
In the case of `CN(C)c1nc(N[C@H]2CC[C@@H](NC(=O)c3cc(Cl)sc3Cl)CC2)nc2c1CCCC2` [compound 519, 2,5-dichloro-N-(cis-4-{[4-(dimethylamino)-5,6,7,8-tetrahydroquinazolin-2-yl]amino}cyclohexyl)thiophene-3-carboxamide], the class is reported as 1 (Class 1: The value of percent of control at 10^−7 M was less than 40% or the value of IC50 was less than 50 nM.).
In the case of `CCCSc1ncccc1C(=O)N[C@H]1CC[C@@H](Nc2nc3c(c(N(C)C)n2)CCCC3)CC1` [compound 520], the class is reported as 2 (Class 2: The value of percent of control at 10^−7 M was from 40% to 60% or the value of IC′50 was from 50 nM to 200 nM.).
`CN(C)c1nc(N[C@H]2CC[C@@H](NC(=O)c3cc(C(C)(C)C)nn3Cc3ccccc3)CC2)nc2c1CCCC2` [compound 521] was tested, and the class was 2 (Class 2: The value of percent of control at 10^−7 M was from 40% to 60% or the value of IC′50 was from 50 nM to 200 nM.).
In the case of `CN(C)c1nc(N[C@H]2CC[C@@H](NC(=O)c3cc(C(C)(C)C)nn3C)CC2)nc2c1CCCC2` [compound 522], the class is reported as 3 (Class 3 The value of percent of control at 10^−7 M was more than 60% or the value of IC50 was more than 200 nM.).
`C/C(=C\c1ccccc1)C(=O)N[C@H]1CC[C@@H](Nc2nc3c(c(N(C)C)n2)CCCC3)CC1` [compound 523] was tested, and the class was 3 (Class 3 The value of percent of control at 10^−7 M was more than 60% or the value of IC50 was more than 200 nM.).
`CN(C)c1nc(N[C@H]2CC[C@@H](NC(=O)c3cncc(Br)c3)CC2)nc2c1CCCC2` [compound 524, 5-bromo-N-(cis-4-{[4-(dimethylamino)-5,6,7,8-tetrahydroquinazolin-2-yl]amino}cyclohexyl)nicotinamide] was tested, and the class was 1 (Class 1: The value of percent of control at 10^−7 M was less than 40% or the value of IC50 was less than 50 nM.).
`CN(C)c1nc(N[C@H]2CC[C@@H](NC(=O)Cc3cccc4ccccc34)CC2)nc2c1CCCC2` [compound 525] was tested, and the class was 3 (Class 3 The value of percent of control at 10^−7 M was more than 60% or the value of IC50 was more than 200 nM.).
`Cc1cc(C(=O)N[C@H]2CC[C@@H](Nc3nc4c(c(N(C)C)n3)CCCC4)CC2)nn1C(C)(C)C` [compound 526] was tested, and the class was 3 (Class 3 The value of percent of control at 10^−7 M was more than 60% or the value of IC50 was more than 200 nM.).
`CN(C)c1nc(N[C@H]2CC[C@@H](NC(=O)c3csc4ccccc34)CC2)nc2c1CCCC2` [compound 527] was tested, and the class was 3 (Class 3 The value of percent of control at 10^−7 M was more than 60% or the value of IC50 was more than 200 nM.).
